Laboratory results as given in patent publication US20260166057A1, “1,3,5(10),16-ESTRATETRAEN-3-YL ACETATE FOR USE IN IMPROVING PSYCHOMOTOR OR COGNITIVE PERFORMANCE” (priority 2023, published 2026).

What was measured:
[1] = Onset of effect after nasal administration; format: in vivo, human
From the text: Because of the rapid onset of effect of nasally administered ETA, and its safety, it is expected that ETA may be administered as needed once mental fatigue is sensed, for example immediately a mentally fatigued person senses sleepiness or a symptom of sleepiness (such as excessive yawning, closing the eyes, nodding of the head, etc.) or a decline in psychomotor or cognitive performance, to improve psychomotor and cognitive performance under those circumstances. It is also expected that ETA may be administered prophylactically to improve, or at least prevent the normal decline in, psychomotor and/or cognitive performance in persons who are, or are likely to become, mentally fatigued. Thus, for example, a firefighter, whose work schedule may require him or her to be available continuously for 72 hours even though he/she is allowed to sleep at night when not actually needed, might administer ETA to improve psychomotor and/or cognitive performance when awakened at night and called to fight a fire; or a pilot of an overnight flight, who flies the aircraft during an afternoon takeoff, rests during the overnight cruise portion of the flight, but then flies the aircraft again as it approaches and lands the next morning, might administer ETA to improve psychomotor and/or cognitive performance on rising from rest to perform the approach and landing.

[2] = tested on: healthy volunteers of both sexes; test: Pilot human trials, nasal administration
[3] = tested on: healthy male volunteers; test: Time Estimation Test (cognitive performance) of the RTTET in mentally fatigued men; conditions: for Time Estimation test improvement: relative to placebo
[4] = tested on: subjects with major depressive disorder; test: Supplemental ETA with itruvone antidepressant therapy (Example 9); format: in vivo, human; conditions: ETA added to itruvone
From the text: Itruvone (INN, pregn-4-en-20-yn-3-one) is being developed for the treatment of MDD and is an investigational product not approved by the Food and Drug Administration. The preparation and experimental treatment of MDD with this compound are described, for example, in Monti, U.S. patent Ser. No. 10/322,138, “Treatment of Depressive Disorders,”. Both itruvone and ETA are believed to have a common mechanism of action in terms of activating olfactory chemosensory neurons in the nasal mucosa, and then activating certain hypothalamic circuits in the brain without brain or systemic uptake. In subjects receiving itruvone treatment for major depressive disorder, ETA is administered to the olfactory epithelium as described in Example 4. […] Cognitive function and psychomotor performance improve in this group of subjects. Because itruvone also is administered to the olfactory epithelium in the form of a spray or aerosol, ETA and itruvone may be administered separately, but proximate in time, or co-formulated for simultaneous intranasal administration.

[5] = tested on: subjects with MDD or peripartum depression; test: ETA in mental fatigue associated with a depressive disorder (Example 7); format: in vivo, human; conditions: nasal as in Example 4
From the text: In subjects experiencing decreased psychomotor and/or cognitive performance in mental fatigue associated with a depressive disorder such as MDD or peripartum depression, a therapeutically effective amount of ETA is nasally administered to the olfactory epithelium as described in Example 4. Psychomotor and cognitive performance improve in this group of subjects.

[6] = tested on: healthy male volunteers; conditions: in vivo
[7] = tested on: isolated human nasal olfactory chemosensory neurons; test: Electrophysiology: inward currents in isolated chemosensory neurons; format: cell-based
[8] = tested on: rat estrogen receptor; test: In vitro agonist/antagonist activity on steroid receptors; format: biochemical
[9] = tested on: healthy male volunteers; test: Adverse events in the efficacy study in mentally fatigued men; conditions: ETA nasal spray 1600 ng per administration, all subjects
[10] = tested on: male rats; test: Intravenous and intranasal administration to male rats; format: in vivo; conditions: 600 μg/Kg intravenous, 900 μg/Kg intranasal, 7-day period
[11] = tested on: subjects with mild cognitive impairment; test: ETA in mild cognitive impairment (Example 12); format: in vivo, human; conditions: intranasal as in Example 4
Description: In subjects experiencing decreased psychomotor and/or cognitive performance associated with mild cognitive impairment, a therapeutically effective amount of ETA is administered intranasally as described in Example 4. Psychomotor and cognitive performance improve in this group of subjects.

[12] = target: rat androgen receptor (Rattus norvegicus, UniProt P15207); test: In vitro agonist/antagonist activity on steroid receptors; format: biochemical
[13] = tested on: healthy male volunteers; test: Reaction Time Test (psychomotor performance) of the RTTET in mentally fatigued men; format: in vivo, human; conditions: for number of errors: relative to placebo, all three non-control tests; for variability in Reaction Time test: compared to caffeine and placebo; for effect on Reaction Time test compared with caffeine: midnight and 3 a.m. tests (subjects fatigued)
[14] = Ames reverse mutation assay; format: cell-based
[15] = tested on: rats of both sexes; test: 7-day intravenous administration to rats of both sexes; format: in vivo
[16] = target: rat glucocorticoid receptor (Rattus norvegicus, UniProt P06536); test: In vitro agonist/antagonist activity on steroid receptors; format: biochemical
[17] = tested on: subjects with peripartum depression; test: ETA in peripartum depression (Example 10); format: in vivo, human; conditions: as in Example 4
Description: In subjects experiencing decreased psychomotor and/or cognitive performance associated with peripartum depression, a therapeutically effective amount of ETA is administered to the olfactory epithelium as described in Example 4. ETA is administered separately from any other antidepressant therapy and is given sequentially or proximate in time to such other medications. Depressive scores reduce when the subjects are evaluated. Psychomotor and cognitive performance improve in this group of subjects.

[18] = tested on: bone marrow; test: In vivo bone marrow micronucleus test
[19] = tested on: subjects with excessive daytime sleepiness; test: ETA in mental fatigue associated with excessive daytime sleepiness (Example 6); format: in vivo, human; conditions: intranasal as in Example 4
From the text: In subjects experiencing decreased psychomotor and/or cognitive performance in mental fatigue associated with excessive daytime sleepiness, a therapeutically effective amount of ETA is intranasally administered as described in Example 4. Psychomotor and cognitive performance improve in this group of subjects.

[20] = target: rat progestin receptor (Rattus norvegicus, UniProt Q63449); test: In vitro agonist/antagonist activity on steroid receptors; format: biochemical
[21] = tested on: nasal septal olfactory chemosensory epithelium; test: Electrophysiology: depolarization of chemosensory epithelium; design: species or system human

Chain of rat glucocorticoid receptor (P06536 whole entry): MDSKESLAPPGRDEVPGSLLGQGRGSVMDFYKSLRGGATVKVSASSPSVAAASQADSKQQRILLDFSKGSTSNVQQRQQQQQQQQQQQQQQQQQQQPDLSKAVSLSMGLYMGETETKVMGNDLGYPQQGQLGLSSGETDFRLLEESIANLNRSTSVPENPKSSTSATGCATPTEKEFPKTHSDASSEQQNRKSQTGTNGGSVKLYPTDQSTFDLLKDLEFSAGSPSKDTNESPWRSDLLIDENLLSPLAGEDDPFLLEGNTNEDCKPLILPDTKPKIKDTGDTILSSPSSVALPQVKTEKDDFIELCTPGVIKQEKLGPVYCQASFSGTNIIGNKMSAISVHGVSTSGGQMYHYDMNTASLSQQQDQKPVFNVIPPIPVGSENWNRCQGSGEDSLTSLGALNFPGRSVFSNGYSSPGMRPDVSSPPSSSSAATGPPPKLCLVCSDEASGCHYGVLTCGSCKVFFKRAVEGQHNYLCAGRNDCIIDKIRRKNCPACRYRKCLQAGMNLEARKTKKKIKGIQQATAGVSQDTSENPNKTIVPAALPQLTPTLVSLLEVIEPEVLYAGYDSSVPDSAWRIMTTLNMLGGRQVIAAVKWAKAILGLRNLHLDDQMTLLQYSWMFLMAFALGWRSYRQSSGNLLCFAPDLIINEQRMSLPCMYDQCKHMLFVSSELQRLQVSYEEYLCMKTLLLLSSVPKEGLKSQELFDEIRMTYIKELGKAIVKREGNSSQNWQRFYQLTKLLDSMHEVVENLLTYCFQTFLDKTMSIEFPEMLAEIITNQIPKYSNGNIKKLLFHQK
Chain of rat androgen receptor (P15207 whole entry S389L): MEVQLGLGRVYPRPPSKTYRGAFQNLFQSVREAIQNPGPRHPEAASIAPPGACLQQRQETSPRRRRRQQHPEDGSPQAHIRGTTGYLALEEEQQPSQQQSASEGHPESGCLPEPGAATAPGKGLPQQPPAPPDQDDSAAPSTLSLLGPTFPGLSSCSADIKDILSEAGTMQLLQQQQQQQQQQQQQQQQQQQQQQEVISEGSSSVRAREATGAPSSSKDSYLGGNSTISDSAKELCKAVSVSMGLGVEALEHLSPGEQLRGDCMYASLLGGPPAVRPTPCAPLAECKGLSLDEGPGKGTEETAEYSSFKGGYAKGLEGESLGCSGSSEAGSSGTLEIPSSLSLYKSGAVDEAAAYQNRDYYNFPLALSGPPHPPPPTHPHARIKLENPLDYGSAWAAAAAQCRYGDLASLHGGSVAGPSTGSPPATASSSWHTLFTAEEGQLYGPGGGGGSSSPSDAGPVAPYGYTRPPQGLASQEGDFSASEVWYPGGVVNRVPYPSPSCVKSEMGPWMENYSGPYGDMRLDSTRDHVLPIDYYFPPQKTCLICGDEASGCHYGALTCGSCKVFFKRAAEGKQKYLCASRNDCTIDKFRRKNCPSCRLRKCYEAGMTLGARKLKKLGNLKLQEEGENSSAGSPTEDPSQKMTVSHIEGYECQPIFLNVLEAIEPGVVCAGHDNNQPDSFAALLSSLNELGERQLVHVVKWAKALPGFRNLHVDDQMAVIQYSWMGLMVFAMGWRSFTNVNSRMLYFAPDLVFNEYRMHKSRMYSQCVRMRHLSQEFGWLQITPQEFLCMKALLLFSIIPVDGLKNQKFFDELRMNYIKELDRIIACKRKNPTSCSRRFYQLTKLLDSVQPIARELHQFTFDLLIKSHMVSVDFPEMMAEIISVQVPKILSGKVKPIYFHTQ
Chain of rat progestin receptor (Q63449 whole entry): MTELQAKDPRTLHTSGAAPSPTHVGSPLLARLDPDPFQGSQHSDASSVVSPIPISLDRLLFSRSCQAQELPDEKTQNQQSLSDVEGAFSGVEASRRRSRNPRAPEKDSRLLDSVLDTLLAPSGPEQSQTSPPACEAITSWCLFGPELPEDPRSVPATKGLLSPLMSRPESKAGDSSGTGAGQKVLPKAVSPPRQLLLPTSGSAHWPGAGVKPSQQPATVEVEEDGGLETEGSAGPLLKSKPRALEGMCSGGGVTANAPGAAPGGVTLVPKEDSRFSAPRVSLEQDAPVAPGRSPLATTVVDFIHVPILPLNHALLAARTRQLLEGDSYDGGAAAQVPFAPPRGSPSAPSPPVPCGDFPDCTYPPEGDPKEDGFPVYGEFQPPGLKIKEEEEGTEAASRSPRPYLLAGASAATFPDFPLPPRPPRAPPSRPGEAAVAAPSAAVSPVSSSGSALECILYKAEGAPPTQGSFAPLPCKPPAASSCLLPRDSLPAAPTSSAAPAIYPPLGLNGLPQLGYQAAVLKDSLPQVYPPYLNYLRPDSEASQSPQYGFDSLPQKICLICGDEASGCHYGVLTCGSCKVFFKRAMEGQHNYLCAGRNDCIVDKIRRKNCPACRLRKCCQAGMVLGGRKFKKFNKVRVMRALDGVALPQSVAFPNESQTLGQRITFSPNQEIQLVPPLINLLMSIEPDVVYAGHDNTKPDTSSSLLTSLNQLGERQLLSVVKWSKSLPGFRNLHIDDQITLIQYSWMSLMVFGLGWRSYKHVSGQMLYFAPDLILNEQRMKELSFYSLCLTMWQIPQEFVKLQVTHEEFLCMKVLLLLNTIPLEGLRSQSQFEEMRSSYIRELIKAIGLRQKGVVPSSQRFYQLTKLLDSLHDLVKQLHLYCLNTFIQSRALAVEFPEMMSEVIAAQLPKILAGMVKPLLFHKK

## CC(=O)Oc1ccc2c(c1)CC[C@@H]1[C@@H]2CC[C@]2(C)C=CC[C@@H]12 [ETA, 1,3,5(10),16-Estratetraen-3-yl acetate]
[1]
  time to improvement in psychomotor and cognitive performance: ≤ 15 min
  time to initial physiological response: within a minute
[2]; intranasal administration
  alpha frequency band of the electroencephalogram: did not have significant effect
  beta frequency band of the electroencephalogram: did not have significant effect
  body temperature: did not have significant effect
  duration of the QTc intervals of the electrocardiogram: did not change
  frequency of electrodermal activity events (skin conductance): significantly increased
[2]; nasal administration, healthy volunteers
  tolerability: well tolerated
[3]; 3 a.m. test
  Time Estimation test improvement: significantly improved
[3]; midnight and 3 a.m. tests, p<0.01
  Time Estimation test improvement relative to caffeine: significantly improved
[3]; midnight test
  Time Estimation test improvement: significantly improved
[4]
  cognitive function and psychomotor performance: improve
  depressive scores: reduce beyond that of itruvone alone
[5]
  psychomotor and cognitive performance: improve
[6]
  serious adverse events: no serious adverse events
[7]; dependence on concentration
  amplitude of the response: increased depending on the concentration of the compound
[7]; isolated human neurons
  inward currents in the membrane: induced inward currents
[8]
  agonist or antagonist activity: no agonist or antagonist activity
[9]
  tolerability: well tolerated
[10]
  mortality, adverse symptoms, changes in behavior: no mortality or adverse symptoms, or changes in behavior
[11]
  psychomotor and cognitive performance: improve
[12]
  agonist or antagonist activity: no agonist or antagonist activity
[13]; isochronous stimuli
  number of errors: significantly decrease
[13]; isochronous
  variability in Reaction Time test: less variability
[13]; isochronous, p<0.001
  effect on Reaction Time test compared with caffeine: significantly better than the effect of caffeine
[13]; stochastic stimuli
  number of errors: significantly decrease
[13]; stochastic
  variability in Reaction Time test: less variability
[13]; stochastic, p<0.0001
  effect on Reaction Time test compared with caffeine: significantly better than the effect of caffeine
[14]
  genotoxicity: mutagenic or clastogenic potential: no evidence of mutagenic or clastogenic potential
[15]; 1 mg/day intravenously, rats of both sexes, 7-day period
  mortality, adverse symptoms, changes in behavior: no mortality or adverse symptoms, or changes in behavior
[15]; rat, in vivo, iv
  macroscopic or microscopic changes in organs: no macroscopic or microscopic changes
[16]
  agonist or antagonist activity: no agonist or antagonist activity
[17]
  depressive scores: reduce
  psychomotor and cognitive performance: improve
[18]
  genotoxicity: mutagenic or clastogenic potential: no evidence of mutagenic or clastogenic potential
[19]
  psychomotor and cognitive performance: improve
[20]
  agonist or antagonist activity: no agonist or antagonist activity
[21]
  electrotonic depolarization: electrotonic depolarization
